Counter-ions that a name gives are not always drawn.
test: APCC in vivo screen: blood cholesterol in male Sprague-Dawley rats on high fat, high cholesterol diet with 0.5% cholic acid; conditions: Rattus norvegicus, single dose 30 mg/kg, high fat high cholesterol diet overnight, read-out: % Change (mg/dl) (cholesterol)
Source text: In one in vivo screen designated APCC, male Sprague-Dawley rats (200 to 225 g) were randomly divided into treatment groups and dosed at 4 PM with either vehicle (CMC/Tween) or suspensions of compounds in vehicle. The normal chow diet was then replaced with a high fat, high cholesterol diet with 0.5% cholic acid. The rats consumed this diet ad libitum during the night and were sacrificed at 8 AM to obtain blood samples for cholesterol analysis using standard procedures. Statistical differences between mean cholesterol values for the same vehicle were determined using analysis of variance followed by Fisher's least significant test. The compounds were dosed at 30 mg/kg unless otherwise noted.

Row | SMILES | change in vivo at 30 mg/kg [%]
1 | COc1cc(C(C)(C)C)c(OC(=O)NS(=O)(=O)NCC(c2ccccc2)c2ccccc2)c(C(C)(C)C)c1 [Example 3] | -55
2 | COc1cc(C(C)(C)C)c(OC(=O)NS(=O)(=O)Nc2c(C(C)C)cccc2C(C)C)c(C(C)(C)C)c1 [Example 4, 2,6-bis(1,1-dimethylethyl)-4-methoxy phenyl[[[2,6-bis(1-methylethyl)phenyl]amino]sulfonyl]carbamate] | -77
3 | CC(C)c1cccc(C(C)C)c1OC(=O)NS(=O)(=O)N(c1ccccc1)c1ccccc1 [Example 10, 2,6-bis(1-methylethyl)phenyl[(diphenylamino)sulfonyl]carbamate] | -67
4 | CC(C)c1cccc(C(C)C)c1OC(=O)NS(=O)(=O)N(Cc1ccccc1)Cc1ccccc1 [Example 12, 2,6-Bis(1-methylethyl)phenyl[[bis(phenylmethyl)amino]sulfonyl]carbamate] | -43
5 | CC(C)c1cccc(C(C)C)c1OC(=O)NS(=O)(=O)Nc1nc2ccccc2[nH]1 [Example 13, 2,6-Bis(1-methylethyl)phenyl[(1H-benzimidazol-2-ylamino)sulfonyl]carbamate] | 8
6 | CCCCN(CCCC)S(=O)(=O)NC(=O)Oc1c(C(C)(C)C)cc(C)cc1C(C)(C)C [Example 22, 2,6-Bis(1,1-dimethylethyl)-4-methylphenyl[(dibutylamino)sulfonyl]carbamate] | -4
7 | CCCCCN(CCCCC)S(=O)(=O)NC(=O)Oc1c(C(C)(C)C)cc(C)cc1C(C)(C)C [Example 23, 2,6-Bis(1,1-dimethylethyl)-4-methylphenyl[(dipentylamino)sulfonyl]carbamat] | -42
8 | Cc1cc(C(C)(C)C)c(OC(=O)NS(=O)(=O)N(C(C)C)C(C)C)c(C(C)(C)C)c1 [Example 24, 2,6-Bis(1,1-dimethylethyl)-4-methylphenyl[[bis(1-methylethyl)amino]sulfonyl]carbamate] | -19
9 | CCCCCCN(CCCCCC)S(=O)(=O)NC(=O)Oc1c(C(C)(C)C)cc(C)cc1C(C)(C)C [Example 25, 2,6-Bis(1,1-dimethylethyl)-4-methylphenyl[(dihexylamino)sulfonyl]carbamate] | -40
10 | CCCCCCNS(=O)(=O)NC(=O)Oc1c(C(C)(C)C)cc(C)cc1C(C)(C)C [Example 26, 2,6-Bis(1,1-dimethylethyl)-4-methylphenyl[(hexylamino)sulfonyl]carbamate] | -52
11 | CCCCCCCCN(C)S(=O)(=O)NC(=O)Oc1c(C(C)(C)C)cc(C)cc1C(C)(C)C [Example 29, 2,6-Bis(1,1-dimethylethyl)-4-methylphenyl[(methyloctylamino)sulfonyl]carbamate] | -55
12 | Cc1cc(C(C)(C)C)c(OC(=O)NS(=O)(=O)N(CC2CCCO2)CC2CCCO2)c(C(C)(C)C)c1 (centres unmarked) [Example 30, 2,6-Bis(1,1-dimethylethyl)4-methylphenyl[[bis[(tetrahydro-2-furanyl)methyl]amino]sulfonyl]carbamate] | 2
13 | CCCCCCCCN(CCCCCCCC)S(=O)(=O)NC(=O)Oc1c(C(C)(C)C)cc(C)cc1C(C)(C)C [Example 31, 2,6-Bis(1,1-dimethylethyl)-4-methylphenyl[(dioctylamino)sulfonyl]carbamate] | 0
14 | CCCCCCCCCCN(CCCCCCCCCC)S(=O)(=O)NC(=O)Oc1c(C(C)(C)C)cc(C)cc1C(C)(C)C [Example 34] | -4
15 | CC(C)c1cccc(C(C)C)c1OC(=O)NS(=O)(=O)N(C(C)C)C(C)C [Example 35, 2,6-Bis(1-methylethyl)phenyl[[bis(1-methylethyl)amino]sulfonyl]carbamate] | -76
16 | CC(C)c1cccc(C(C)C)c1OC(=O)NS(=O)(=O)N(Cc1ccccc1)C(C)C [Example 36] | -70
17 | CCCCCCNS(=O)(=O)NC(=O)Oc1c(C(C)C)cccc1C(C)C [Example 37, 2,6-Bis(1-methylethyl)phenyl[(hexylamino)sulfonyl]carbamate] | -58
18 | CCCCCCCCN(CCCCCCCC)S(=O)(=O)NC(=O)Oc1c(C(C)C)cccc1C(C)C [Example 38, 2,6-Bis(1-methylethyl)phenyl[(dioctylamino)sulfonyl]carbamate] | -70
19 | CC(C)c1cccc(C(C)C)c1OC(=O)NS(=O)(=O)N(C(C)C)C1CCCCC1 [Example 39, 2,6-Bis(1-methylethyl)phenyl[[cyclohexyl(1-methylethyl)amino]sulfonyl]carbamate] | -60
20 | CCCCCCCCN(C)S(=O)(=O)NC(=O)Oc1c(C(C)C)cccc1C(C)C [Example 40, 2,6-Bis(1-methylethyl)phenyl[(methyloctylamino)sulfonyl]carbamate] | -60
21 | CCCCCCN(CCCCCC)S(=O)(=O)NC(=O)Oc1c(C(C)C)cccc1C(C)C [Example 41, 2,6-Bis(1-methylethyl)phenyl[(dihexylamino)sulfonyl]carbamate] | -62
22 | CCCCCN(CCCCC)S(=O)(=O)NC(=O)Oc1c(C(C)C)cccc1C(C)C [Example 42, 2,6-Bis(1-methylethyl)phenyl[(dipentylamino)sulfonyl]carbamate] | -74
23 | CC(C)c1cccc(C(C)C)c1OC(=O)NS(=O)(=O)N1CCCC1 [Example 52, 2,6-Bis(1-methylethyl)-phenyl ester(1-pyrrolidinylsulfonyl)-carbamic acid] | -53
24 | CC(C)c1cccc(C(C)C)c1OC(=O)NS(=O)(=O)N1CCc2ccccc21 [Example 54] | -77

same assay, conditions: Rattus norvegicus, single dose 50 mg/kg (*), high fat high cholesterol diet overnight, read-out: % Change (mg/dl) (cholesterol)

Row | SMILES | change in vivo at 50 mg/kg [%]
25 | CC(C)(C)c1cccc(C(C)(C)C)c1OC(=O)NS(=O)(=O)NC(c1ccccc1)c1ccccc1 [Example 5, 2,6-bis(1,1-dimethylethyl)phenyl[[(diphenylmethyl)amino]sulfonyl]carbamate] | -35
26 | CC(C)c1cccc(C(C)C)c1NS(=O)(=O)NC(=O)Oc1c(C(C)(C)C)cccc1C(C)(C)C [Example 6, 2,6-bis(1,1-dimethylethyl)phenyl[[[2,6-bis(1-methylethyl)phenyl]amino]sulfonyl]carbamate] | -57
27 | CC(C)(C)c1cccc(C(C)(C)C)c1OC(=O)NS(=O)(=O)NCC(c1ccccc1)c1ccccc1 [Example 7, 2,6-bis(1,1-dimethylethyl)phenyl[[(2,2-diphenylethyl)amino]sulfonyl]carbamate] | -32
28 | CC(C)(C)c1cccc(C(C)(C)C)c1OC(=O)NS(=O)(=O)Nc1ccccc1 [Example 8, 2,6-bis(1,1-dimethylethyl)phenyl[(phenylamino)sulfonyl]carbamate] | -26
29 | CC(C)(C)c1cccc(C(C)(C)C)c1OC(=O)NS(=O)(=O)N(Cc1ccccc1)Cc1ccccc1 [Example 9] | -3
30 | CC(C)c1cccc(C(C)C)c1OC(=O)NS(=O)(=O)Nc1ccccc1 [Example 14, 2,6-Bis(1-methylethyl)phenyl[(phenylamino)sulfonyl]carbamate] | -55
31 | CC(C)c1cccc(C(C)C)c1OC(=O)NS(=O)(=O)NCC(c1ccccc1)c1ccccc1 [Example 15] | -29
32 | CC(C)c1cccc(C(C)C)c1NS(=O)(=O)NC(=O)Oc1c(C(C)C)cccc1C(C)C [Example 16, 2,6-Bis(1-methylethyl)phenyl[[[2,6-bis(1-methylethyl)phenyl]amino]sulfonyl]carbamate] | -65
33 | CC(C)c1cccc(C(C)C)c1OC(=O)NS(=O)(=O)NC(c1ccccc1)c1ccccc1 [Example 17, 2,6-Bis(1-methylethyl)phenyl[[(diphenylmethyl)amino]sulfonyl]carbamate] | -46
34 | Cc1cc(C(C)(C)C)c(OC(=O)NS(=O)(=O)NC(c2ccccc2)c2ccccc2)c(C(C)(C)C)c1 [Example 18, 2,6-Bis(1,1-dimethylethyl)-4-methylphenyl[[(diphenylmethyl)amino]sulfonyl]carbamate] | -42
35 | Cc1cc(C(C)(C)C)c(OC(=O)NS(=O)(=O)Nc2c(C(C)C)cccc2C(C)C)c(C(C)(C)C)c1 [Example 19] | -56
36 | Cc1cc(C(C)(C)C)c(OC(=O)NS(=O)(=O)NCC(c2ccccc2)c2ccccc2)c(C(C)(C)C)c1 [Example 20, 2,6-Bis(1,1-dimethylethyl)-4-methylphenyl[[(2,2-diphenylethyl)amino]sulfonyl]carbamate] | -54
37 | Cc1cc(C(C)(C)C)c(OC(=O)NS(=O)(=O)Nc2ccccc2)c(C(C)(C)C)c1 [Example 21, 2,6-Bis(1,1-dimethylethyl)-4-methylphenyl[(phenylamino)sulfonyl]carbamate] | -33

same assay, conditions: rat, single dose 30 mg/kg, high fat high cholesterol diet overnight, read-out: % Change (mg/dl) (cholesterol)

Row | SMILES | change in vivo at 30 mg/kg [%]
38 | CCCCCCCCCCCCOC(=O)NS(=O)(=O)Nc1c(C(C)C)cccc1C(C)C [Example 2] | 0
39 | Cc1cc(C(C)(C)C)c(OC(=O)NS(=O)(=O)N(CCCN(C)C)CCCN(C)C)c(C(C)(C)C)c1 [Example 28, 2,6-Bis(1,1-dimethylethyl)-4-methylphenyl[[[bis-3-(di-methylamino)propyl]amino]sulfonyl]carbamate] | -13
40 | CCCCCCCCCCCCOC(=O)NS(=O)(=O)Nc1c(OC)cc(OC)cc1OC [Example 43, Dodecyl[[(2,4,6-trimethoxyphenyl)amino]sulfonyl]carbamate] | -8

same assay, conditions: rat, single dose 30 mg/kg, high fat high cholesterol diet overnight, sodium salt, 30 mg/kg

Row | SMILES | % Change (mg/dl) (cholesterol)
41 | Cc1cc(C(C)(C)C)c(OC(=O)NS(=O)(=O)N(C)CCc2ccccn2)c(C(C)(C)C)c1 [Example 33, 2,6-Bis(1,1-dimethylethyl)-4-methylphenyl[[[methyl 2-(2-pyridinyl)ethyl]amino]sulfonyl]carbamate, sodium salt] | -22 % Change (mg/dl)

Source: US5336690A, “Aminosulfonyl carbamates composition and method of use to treat hypercholesterolemia and atherosclerosis” (Warner-Lambert Company, priority 1993, dated 1994)
